# Laboratory results: US6835382B2, “Ii peptide therapeutics to enhance antigen presentation” (University of Massachusetts, priority 1996, dated 2004)
# Non-standard residues stand in square brackets, D forms with d. hArg = N=C(N)NCCCC[C@H](N)C(=O)O; Cit = NC(=O)NCCC[C@H](N)C(=O)O; Orn = NCCC[C@H](N)C(=O)O
# Biological target: T1, murine E^d MHC class II allele (Mus musculus, UniProt P01904+P01915)
# T1 sequence (P01904 26-255): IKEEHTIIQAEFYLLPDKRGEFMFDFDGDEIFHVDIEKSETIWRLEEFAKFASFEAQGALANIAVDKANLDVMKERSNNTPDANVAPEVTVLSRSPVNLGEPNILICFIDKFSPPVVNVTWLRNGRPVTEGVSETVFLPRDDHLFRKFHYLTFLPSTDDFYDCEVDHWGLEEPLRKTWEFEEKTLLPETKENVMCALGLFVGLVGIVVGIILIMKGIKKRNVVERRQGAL
# T1 sequence (P01915 27-264 limits assumed): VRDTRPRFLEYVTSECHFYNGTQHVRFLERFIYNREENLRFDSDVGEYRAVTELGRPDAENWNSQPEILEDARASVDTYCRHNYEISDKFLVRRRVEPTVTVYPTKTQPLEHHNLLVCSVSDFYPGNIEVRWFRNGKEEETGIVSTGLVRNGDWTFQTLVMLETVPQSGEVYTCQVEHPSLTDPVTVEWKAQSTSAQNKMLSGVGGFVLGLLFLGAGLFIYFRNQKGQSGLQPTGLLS
# Experiment: antigenic peptide prepulse assay, E^d allele (fixed APC prepulsed with HEL106-116)
# Format: cell-based
# Set-up: The A20 and CH27 B cell lymphoma lines express H-2^d and H-2^k alleles, respectively; endogenous in cells; host or cells: A20 B cell lymphoma (mitomycin C-treated or paraformaldehyde-fixed)
# Conditions: for Activity in antigenic peptide prepulse assay, E^d (baseline = 1.00) / Activity in antigenic peptide prepulse assay, E^d (baseline without AE peptide = 1.00) / Activity in antigenic peptide prepulse assay, E^d (baseline = 1.0): AE peptide 64 μM; for Activity in antigenic peptide prepulse assay, E^d (baseline = 1): Table 23, as printed: antigenic peptide prepulse 64 μM, AE peptide 1:4 μM; for Activity in antigenic peptide prepulse assay, E^d (baseline without AE peptide = 1.00): Table 19, prepulse 12 μM HEL106-116; for T cell response relative to baseline without AE peptide (None = 1.0), E^d: Table 27, antigenic peptide prepulse 24 μM, AE101 series peptide 64 μM, HT-2 supernatant dilution 1:8
# Method: In a second type of assay, the “peptide prepulse assay”, the antigenic peptide is incubated with paraformaldehyde-fixed APC for 6 h. The APC are washed and incubated for 24 h with the AE101 series homolog and the T cell hybridoma specific for the antigenic peptide. After that incubation, an aliquot of the culture supernatant is transferred to a second culture to measure the relative degree of T hybridoma stimulation, as reflected in the effect of released interleukins on the growth of an interleukin-dependent, indicator cell line, as described above.
# The two above described assays measure different aspects of the molecular mechanism of the AE101 series of peptides. In the “simultaneous assay”, AE101 series peptides are thought to induce the release of endogenously bound peptides and to permit the binding of the second, specific antigenic peptide which is relatively abundant in the culture fluid. The AE101 series peptides enhance antigenic peptide-specific T cell responses in simultaneous assays. In the “peptide prepulse” assay, the specific antigenic peptide becomes bound to MHC class II molecules on the surface of the fixed APC during the 6 h prepulse incubation. The effect of the AE101 series homologs is then thought to release that antigenic peptide, resulting in an apparent suppression of the immune response.
# The AE101 series peptides are thought to contact the MHC class II molecules at a discrete site outside the antigenic peptide-binding groove. AE101 peptide binding to this “Ii-KEY” site is thought to induce a conformational change in the MHC class II molecules accelerating the dissociation of previously bound antigenic peptide. […] The AE101 series peptides thus inhibit antigenic peptide-specific T cell responses in the “peptide prepulse” assays.
# Antigenic peptide-specific T cell activation was measured by the following procedure. Mitomycin C-treated A20 cells (A^dE^d) or CH27 cells APC (A^kE^k) were generated by incubating 5×10^6 cells/mL for 20 min at 37° C. with 0.025 mg/mL of mitomycin C (Sigma) in Dulbecco's Modified Eaglel's Medium (DMEM)/10 mM N-2(hydroxyethylpiperazine-N″[2-ethanesulfonic acid] (HEPES), followed by two washes with four volumes of DMEM-5% fetal calf serum (FCS), 10 mM HEPES. Fixed APC were generated by treating 1×10^6 cells/mL for 5 min with 0.5% paraformaldehyde in PBS (pH 7.2), followed by two washes with four volumes of DMEM-10% FCS, 10 mM HEPES. T cell hybridomas were irradiated 2200 rads before each assay.
# The “peptide prepulse assay” was carried out under essentially the same conditions as described for the “simultaneous assay” with the following modifications. Fixed APC were first incubated for 6 h at 1×10^6 cells/mL in complete DMEM-5% FCS in 24-well microculture plates (1 mL/well) with antigenic peptide, followed by four washes with 10 volumes of DMEM-5% FCS. The cells were then exposed to varying concentrations of AE101 series peptide (64 μM, 16 μM, 4 μM, and 1 μM) for 24 h in the presence of the T cell hybridoma specific to the antigenic peptide. Interleukin release from these cultures was measured by proliferation of HT-2 cells to interleukins in supernatants transferred from the primary culture. Generally, a single dose of 64 μM of each AE101 series peptide was used. The baseline T cell response was measured by culturing T hybridoma cells with the antigenic peptide-prepulsed APC in the absence of AE101 series peptides.
# […] […] Paraformaldehyde-treated APC (fixed APC) expressing MHC class II molecules were incubated with antigenic peptide for 6 h (HEL106-116 for E^d and PGCC81-104 for E^k). After this incubation, the prepulsed APC were washed and cultured with T hybridoma cells and AE101 series peptides. […] The AE101 series peptide concentrations were 64 μM for E^d and 16 μM for E^k. The dilutions of supernatant taken into the HT-2 cell assay were 1:4 for Ed and 1:2 for E^k.
# [1] = Table 24, prepulse 24 μM antigenic peptide, supernatant 1:4
# [2] = Table 20, prepulse 3 μM antigenic peptide, supernatant 1:2
# [3] = Table 22, prepulse 6 μM antigenic peptide, supernatant 1:8
# [4] = Table 25, prepulse 24 μM antigenic peptide, supernatant 1:4
# [5] = Table 26, prepulse 24 μM antigenic peptide, supernatant 1:2
# [6] = Table 28, prepulse 24 μM antigenic peptide, supernatant 1:4
# [7] = Table 21, prepulse 24 μM antigenic peptide, supernatant 1:8
substance,measurement,setting,value
Ac-LRLKYPk-NH2 [AE307],"Activity in antigenic peptide prepulse assay, E^d (baseline = 1.00)",[1],0.59
Ac- (mL) RMKLPK-NH2 [AE174],"Activity in antigenic peptide prepulse assay, E^d (baseline = 1)",supernatant 1:8,0.6
same,"Activity in antigenic peptide prepulse assay, E^d (baseline = 1.00)",[1],0.60
Ac-Y M MKLPKSAK-NH2 [AE141],"Activity in antigenic peptide prepulse assay, E^d (baseline = 1.00)",[2],0.41
Ac-YRMK-NH2 [AE117],"Activity in antigenic peptide prepulse assay, E^d (baseline without AE peptide = 1.00)",supernatant 1:4,0.65
Ac-LRMKLPKPPK-NH2 [AE168],"Activity in antigenic peptide prepulse assay, E^d (baseline without AE peptide = 1.00)",supernatant 1:4,0.10
Ac-LRMKLPK-NH2 [AE114],"Activity in antigenic peptide prepulse assay, E^d (baseline = 1.00)",[3],0.02
same,"Activity in antigenic peptide prepulse assay, E^d (baseline = 1)",supernatant 1:8,0.41
same,"Activity in antigenic peptide prepulse assay, E^d (baseline = 1.00)",[1],0.41
same,"Activity in antigenic peptide prepulse assay, E^d (baseline = 1.00)",[4],0.31
same,"Activity in antigenic peptide prepulse assay, E^d (baseline = 1.0)",[5],0.28
same,"T cell response relative to baseline without AE peptide (None = 1.0), E^d",,0.32
same,"Activity in antigenic peptide prepulse assay, E^d (baseline = 1.0)",[6],0.41
Ac-LRMK HArg PK-NH2 (Ac-LRMK[hArg]PK-NH2; SMILES CSCC[C@H](NC(=O)[C@H](CCCNC(=N)N)NC(=O)[C@H](CC(C)C)NC(C)=O)C(=O)N[C@@H](CCCCN)C(=O)N[C@@H](CCCCNC(=N)N)C(=O)N1CCC[C@H]1C(=O)N[C@@H](CCCCN)C(N)=O) [AE227],"Activity in antigenic peptide prepulse assay, E^d (baseline = 1.00)",[4],0.28
Ac-Y Y MKLPKSAK-NH2 [AE140],"Activity in antigenic peptide prepulse assay, E^d (baseline = 1.00)",[2],0.78
Ac-LRMKLPKPPP-NH2 [AE167],"Activity in antigenic peptide prepulse assay, E^d (baseline without AE peptide = 1.00)",supernatant 1:4,0.23
Ac-L[Cit]MKNPK-NH2 [AE342],"Activity in antigenic peptide prepulse assay, E^d (baseline = 1.00)",[4],0.67
Ac-LR HArg KLPK-NH2 [AE197],"Activity in antigenic peptide prepulse assay, E^d (baseline = 1.0)",[5],0.32
Ac-LRMK (mL) PK-NH2 [AE175],"Activity in antigenic peptide prepulse assay, E^d (baseline = 1)",supernatant 1:8,0.7
same,"Activity in antigenic peptide prepulse assay, E^d (baseline = 1.00)",[1],0.70
Ac-Y Q MKLPKSAK-NH2 [AE138],"Activity in antigenic peptide prepulse assay, E^d (baseline = 1.00)",[2],0.73
Ac-LRMK Y PK-NH2 (Ac-LRMKYPK-NH2; not fully specified; printed as Ac-LRMK Y PK-NH2) [AE235],"Activity in antigenic peptide prepulse assay, E^d (baseline = 1.00)",[1],0.30
same,"Activity in antigenic peptide prepulse assay, E^d (baseline = 1.00)",[4],0.25
same,"Activity in antigenic peptide prepulse assay, E^d (baseline = 1.0)",[5],0.23
same,"T cell response relative to baseline without AE peptide (None = 1.0), E^d",,0.40
same,"Activity in antigenic peptide prepulse assay, E^d (baseline = 1.0)",[6],0.30
Ac-YRM-NH2 [AE118],"Activity in antigenic peptide prepulse assay, E^d (baseline without AE peptide = 1.00)",supernatant 1:4,0.68
Ac-Y[hArg]MKLPKSAK-NH2 [AE132],"Activity in antigenic peptide prepulse assay, E^d (baseline = 1.00)",[2],0.58
same,"Activity in antigenic peptide prepulse assay, E^d (baseline = 1.0)",[5],0.82
Ac-YRMKLPKSAK-NH2 [AE109],"Activity in antigenic peptide prepulse assay, E^d (baseline without AE peptide = 1.00)",supernatant 1:4,0.11
same,"Activity in antigenic peptide prepulse assay, E^d (baseline = 1.00)",[2],0.28
same,"Activity in antigenic peptide prepulse assay, E^d (baseline = 1.00)",[7],0.10
Ac-YRMKL hydrP KSAK-NH2 (Ac-YRMKL[hydrP]KSAK-NH2) [AE143],"Activity in antigenic peptide prepulse assay, E^d (baseline = 1.00)",[7],0.18
Ac-ARMKNPK-NH2 [AE345],"Activity in antigenic peptide prepulse assay, E^d (baseline = 1.00)",[4],0.61
Ac-LR[Orn]KLPK-NH2 [AE195],"Activity in antigenic peptide prepulse assay, E^d (baseline = 1.00)",[4],0.41
Ac-ARMKLPKSAK-NH2 [AE120],"Activity in antigenic peptide prepulse assay, E^d (baseline = 1.00)",[4],0.63
Ac-YRMKL-NH2 [AE116],"Activity in antigenic peptide prepulse assay, E^d (baseline without AE peptide = 1.00)",supernatant 1:4,0.80
Ac-LRNKNPK-NH2 [AE349],"Activity in antigenic peptide prepulse assay, E^d (baseline = 1.00)",[4],0.69
Ac-Y H MKLPKSAK-NH2 [AE133],"Activity in antigenic peptide prepulse assay, E^d (baseline = 1.00)",[2],0.39
Ac-Y N MKLPKSAK-NH2 [AE137],"Activity in antigenic peptide prepulse assay, E^d (baseline = 1.00)",[2],0.57
Ac-ARNKNPK-NH2 [AE346],"Activity in antigenic peptide prepulse assay, E^d (baseline = 1.00)",[4],0.65
Ac-L[Cit]NKLPK-NH2 [AE343],"Activity in antigenic peptide prepulse assay, E^d (baseline = 1.00)",[4],0.55
Ac-Y[Cit]MKLPKSAK-NH2 [AE131],"Activity in antigenic peptide prepulse assay, E^d (baseline = 1.00)",[2],0.69
same,"Activity in antigenic peptide prepulse assay, E^d (baseline = 1.00)",[4],0.61
Ac-ARNKLPK-NH2 [AE344],"Activity in antigenic peptide prepulse assay, E^d (baseline = 1.00)",[4],0.46
Ac-LRMKLP F-NH2 (Ac-LRMKLPF-NH2) [AE248],"Activity in antigenic peptide prepulse assay, E^d (baseline = 1.00)",[4],0.63
Ac-LR N KLPK-NH2 (Ac-LRNKLPK-NH2) [AE202],"Activity in antigenic peptide prepulse assay, E^d (baseline = 1.00)",[4],0.30
Ac-LR (mL) KyPK-NH2 [AE304],"Activity in antigenic peptide prepulse assay, E^d (baseline = 1.00)",[1],0.78
Ac-ARNKNPF-NH2 [AE347],"Activity in antigenic peptide prepulse assay, E^d (baseline = 1.00)",[4],0.64
Ac-LR (mL) KYPk-NH2 [AE305],"Activity in antigenic peptide prepulse assay, E^d (baseline = 1.00)",[1],0.72
Ac-LRMK l PK-NH2 [AE164],"Activity in antigenic peptide prepulse assay, E^d (baseline = 1.00)",[3],0.37
same,"Activity in antigenic peptide prepulse assay, E^d (baseline = 1.00)",[1],0.59
Ac-LR (mL) KYPK-NH2 [AE303],"Activity in antigenic peptide prepulse assay, E^d (baseline = 1.00)",[1],0.78
Ac-YRMKLPK-NH2 [AE113],"Activity in antigenic peptide prepulse assay, E^d (baseline without AE peptide = 1.00)",supernatant 1:4,0.10
Ac-LR m KLPK-NH2 [AE162],"Activity in antigenic peptide prepulse assay, E^d (baseline = 1.00)",[3],0.28
YRMKLPKSAKPVSQMR [AE101],"Activity in antigenic peptide prepulse assay, E^d (baseline = 1.00)",[2],0.25
Ac-LRMKL p K-NH2 [AE165],"Activity in antigenic peptide prepulse assay, E^d (baseline = 1.00)",[3],0.25
Ac-LRLK HArg PK-NH2 [AE341],"Activity in antigenic peptide prepulse assay, E^d (baseline = 1.00)",[4],0.12
Ac-Y K MKLPKSAK-NH2 [AE134],"Activity in antigenic peptide prepulse assay, E^d (baseline = 1.00)",[2],0.60
same,"Activity in antigenic peptide prepulse assay, E^d (baseline = 1.0)",[5],0.83
